Where “and” joins values, the source holds several entries; their conditions need not be identical. Identical values can stand only once.
What was measured:
[1] = AIOR assay (antioxidant inhibition of radical assay): uroporphyrin I fluorescence decay with AAPH, area under curve against Trolox standard curve; format: biochemical; details: for Antioxidant Status (mM) Trolox Equivalent Calculated 1/16 Dilution: calculated from the observed ¼ dilution value; for Antioxidant Status Trolox Equivalent (mM) of the observed individual ¼ Dilution: individual polyphenol; for Antioxidant Status Trolox Equivalent (mM) of the observed individual ¼ Dilution / Antioxidant status in mM Trolox equivalent, High value / Antioxidant status in mM Trolox equivalent, Low value / Antioxidant status in mM Trolox equivalent, Mean value: n=9; for antioxidant activity of solvent (in words) / Antioxidant status in mM Trolox equivalent, High value / Antioxidant status in mM Trolox equivalent, Low value / Antioxidant status in mM Trolox equivalent, Mean value: solvent compared against blank; for Area Under Curve (mean ± SD): uroporphyrin 1/1000, ratio 1:45:280, n=6
Protocol: The stock phosphate buffer (0.75 M, pH 7.0) was prepared by mixing 61.1:38.9 (v/v) of a 0.75 M K2HPO4 and a 0.75 M NaH2PO4 solution. The working phosphate buffer 75 mM, pH 7.0 was prepared by a 1:9 (v/v) dilution of the 0.75 M stock phosphate buffer.
AAPH (583 mM) was prepared by dissolving completely 0.474 g of AAPH in 3 mL of 75 mM, pH 7.0 phosphate buffer. This solution was prepared freshly before each run.
Uroporphyrin stock solution (225 μM) was prepared by dissolving 1.2 mg of uroporphyrin I dihydrochloride in 5.9 mL of phosphate buffer (75 mM, pH 7.0). This solution was very stable for many months by storing in the dark at 4° C. A secondary uroporphyrin stock solution for routine use was prepared by a 1:50 (v/v) dilution of the stock uroporphyrin solution with phosphate buffer (75 mM, pH 7.0). This secondary stock solution was stable for several months in the dark at 4° C. A working uroporphyrin solution for daily use was prepared by a 1:750 (v/v) dilution of the secondary uroporphyrin solution with phosphate buffer (75 mM, pH 7.0).
To enable complete solubility of both hydrophobic and hydrophilic compounds in the sample, a surfactant Brij 35™ was added to the working uroporphyrin solution in the quantity of 0.1% of the reagent.
Trolox was used as an antioxidant standard to compare the antioxidant status of various inorganic and organic matter. A stock Trolox standard solution (5.0 mM) was prepared by dissolving Trolox 35 (250 mg) in 200 mL of phosphate buffer (75 mM, pH 7.0). Working standards of Trolox were prepared by diluting the stock Trolox standard to 0.5, 1.0 and 2.0 mM with the same buffer.
Sample/blank/standard (1 μL), and working uroporphyrin solution (0.300 uM) with Brij™ (136 μL) were added to the wells of a 96-well microplate. Blank, standards or diluted samples were added first into the well, followed by working uroporphyrin solution with Brij™. The contents of each well was mixed using a plateshaker for 1-2 minutes. Freshly prepared AAPH solution […] (22 μL) was then added. This procedure provided a sample to AAPH to uroporphyrin ratio of (1:22:136). The contents of the wells were then mixed again for exactly 2 minutes before acquisition of data with the Varian Cary Eclipse fluorescence spectrophotometer. A sample to reagent ratio of (2:30:186) was also used to further improve the precision of the assay.
The Varian Cary Eclipse fluorescence spectrophotometer settings were as follows. • Excitation λ=397 nm; Emission λ=615 nm. • Excitation Slit=20 nm; Emission Slit=10 nm. • Ave Time=0.2 sec. • Run Time=180 minutes. • Y (min-max)=0-1000. • Excitation Filter: Auto. • Emission Filter: Open. • PMT: Variable (Choice of low, medium or high).
The method takes the free radical action to completion in 180 minutes. The Varian Cary Eclipse fluorescence spectrophotometer has the ability to achieve high throughput of 96 samples in 180 minutes with the 96-wellplate format. […] This invention provides both a method and reagent, which can accurately, easily, economically, and quickly analyze antioxidant status.
The results of the analysis were normalized by Varian Cary Eclipse software and calculated by GraphPad Prism 4.0 software (GraphPad Software, Inc., San Diego Calif., 2003).

[2] = as above; format: biochemical; details: for Area Under Curve (mean ± SD): uroporphyrin 1/1000, ratio 1:45:280, n=6

For `O=c1[nH]c(=O)c2[nH]c(=O)[nH]c2[nH]1` [Uric Acid, Uric acid], the “Antioxidant Status in Trolox Equivalent (mM ± SD)” value ([1]; uric acid 424 μM in phosphate buffer, n=12) was 0.6 ± 0.1 mM, the “Antioxidant Status in Trolox Equivalent (mM ± SD)” value ([1]; uric acid 424 μM in phosphate buffer, n=12, listed as uric acid) was 0.6 mM and the “Antioxidant Status in Trolox Equivalent (mM ± SD)” value ([1]; uric acid 848 μM in phosphate buffer, n=12) was 1.2 ± 0.1 mM. For the same molecule, the “Antioxidant Status in Trolox Equivalent (mM ± SD)” value ([1]; uric acid 848 μM in phosphate buffer, n=12, listed as uric acid) was 1.2 mM, the “Antioxidant Status in Trolox Equivalent (mM ± SD)” value ([1]; uric acid 1696 μM in phosphate buffer, n=12) was 2.4 ± 0.1 mM and the “Antioxidant Status in Trolox Equivalent (mM ± SD)” value ([1]; uric acid 1696 μM in phosphate buffer, n=12, listed as uric acid) was 2.4 mM. For the same molecule, the “estimation of mean antioxidant status, Trolox equivalent” value ([1]; uric acid at physiological upper range for female, 340 μmol/L) was 0.48 mM and the “estimation of mean antioxidant status, Trolox equivalent” value ([1]; uric acid at physiological upper range for male, 420 μmol/L) was 0.59 mM.

For `O=c1c(O)c(-c2ccc(O)c(O)c2)oc2cc(O)cc(O)c12` [Quercetin], the “Antioxidant Status (mM) Trolox Equivalent Calculated 1/16 Dilution” value [1] was 1.10 mM, the “Antioxidant Status Trolox Equivalent (mM) of the observed individual ¼ Dilution” value [1] was 4.41 ± 0.44 mM and the “Antioxidant Status Trolox Equivalent (mM ± SD)” value ([1]; polyphenol 0.25 mM in ethanol) was 1.82 ± 0.13 mM. For the same molecule, the “Antioxidant Status Trolox Equivalent (mM ± SD)” value ([1]; polyphenol 0.5 mM in ethanol) was 4.58 ± 0.24 mM.

In the case of `O=C(O)c1cc(O)c(O)c(O)c1` [Gallic acid], the “Antioxidant Status (mM) Trolox Equivalent Calculated 1/16 Dilution” value [1] is reported as 0.45 mM, the “Antioxidant Status Trolox Equivalent (mM) of the observed individual ¼ Dilution” value [1] is reported as 1.75 ± 0.11 mM and the “Antioxidant Status Trolox Equivalent (mM ± SD)” value ([1]; polyphenol 0.25 mM in ethanol) is reported as 0.46 ± 0.07 mM. The “Antioxidant Status Trolox Equivalent (mM ± SD)” value ([1]; polyphenol 0.5 mM in ethanol) was 1.22 ± 0.17 mM.

With (±) catechin the “Antioxidant Status Trolox Equivalent (mM ± SD)” value ([1]; polyphenol 0.25 mM in ethanol) was 1.60 ± 0.07 mM and the “Antioxidant Status Trolox Equivalent (mM ± SD)” value ([1]; polyphenol 0.5 mM in ethanol) was 3.47 ± 0.19 mM.

For `Cn1c(=O)c2c(ncn2C)n(C)c1=O` [caffeine], the “mean antioxidant status in Trolox equivalent” value ([1]; caffeine 9.6 mmol/L in phosphate buffer) was 0.2 mM.

In the case of `O=C1O[C@H]([C@@H](O)CO)C(O)=C1O` [Vitamin C], the “Antioxidant Status in Trolox Equivalent (mM ± SD)” value ([1]; vitamin C 2.65 mM in deionized water, n=12) is reported as 0.9 ± 0.1 mM, the “Antioxidant Status in Trolox Equivalent (mM ± SD)” value ([1]; vitamin C 2.65 mM in deionized water, n=12, listed as vitamin C) is reported as 0.9 mM and the “Antioxidant Status in Trolox Equivalent (mM ± SD)” value ([1]; vitamin C 5.30 mM in deionized water, n=12) is reported as 1.8 ± 0.1 mM. For the same molecule, the “Antioxidant Status in Trolox Equivalent (mM ± SD)” value ([1]; vitamin C 5.30 mM in deionized water, n=12, listed as vitamin C) was 1.8 mM, the “Antioxidant Status in Trolox Equivalent (mM ± SD)” value ([1]; vitamin C 10.6 mM in deionized water, outside standard curve range, n=12) was 4.0 ± 0.2 mM and the “Antioxidant Status in Trolox Equivalent (mM ± SD)” value ([1]; vitamin C 10.6 mM in deionized water, outside standard curve range, n=12, listed as vitamin C) was 4.0 mM.

For Vitamin E, the “Antioxidant Status in Trolox Equivalent (mM ± SD)” value ([1]; vitamin E 952 μM in isopropanol, n=10) was 0.4 ± 0.1 mM, the “Antioxidant Status in Trolox Equivalent (mM ± SD)” value ([1]; vitamin E 952 μM in isopropanol, n=10, listed as vitamin E) was 0.4 mM and the “Antioxidant Status in Trolox Equivalent (mM ± SD)” value ([1]; vitamin E 1905 μM in isopropanol, n=10) was 1.1 ± 0.1 mM. The “Antioxidant Status in Trolox Equivalent (mM ± SD)” value ([1]; vitamin E 1905 μM in isopropanol, n=10, listed as vitamin E) was 1.1 mM, the “Antioxidant Status in Trolox Equivalent (mM ± SD)” value ([1]; vitamin E 3810 μM in isopropanol, n=10) was 2.7 ± 0.1 mM and the “Antioxidant Status in Trolox Equivalent (mM ± SD)” value ([1]; vitamin E 3810 μM in isopropanol, n=10, listed as vitamin E) was 2.7 mM.

With `CC(C)O` [Isopropanol] the “antioxidant activity of solvent (in words)” value (“antioxidant activity” below) [1] was “no antioxidant activity”, the “Antioxidant status in mM Trolox equivalent, High value” (“Antioxidant status … High value” below) [1] was 0.1 mM and the “Antioxidant status in mM Trolox equivalent, Low value” (“Antioxidant status … Low value” for short) [1] was 0.0 mM. The “Antioxidant status in mM Trolox equivalent, Mean value” (“Antioxidant status … Mean value” for short) [1] was 0.04 mM.

In the case of Albumin, the “Antioxidant Capacity in Trolox Equivalent (mM ± SD)” value ([1]; albumin 20 g/L in phosphate buffer, n=12) is reported as 1.2 mM and 1.2 ± 0.1 mM and the “Antioxidant Capacity in Trolox Equivalent (mM ± SD)” value ([1]; albumin 40 g/L in phosphate buffer, n=12) is reported as 2.4 mM and 2.4 ± 0.1 mM.

In the case of Vitamin A, the “Antioxidant Status in Trolox Equivalent (mM ± SD)” value ([1]; vitamin A 1940 μM in isopropanol, n=10) is reported as 0.6 ± 0.1 mM, the “Antioxidant Status in Trolox Equivalent (mM ± SD)” value ([1]; vitamin A 1940 μM in isopropanol, n=10, listed as vitamin A) is reported as 0.56 mM and the “Antioxidant Status in Trolox Equivalent (mM ± SD)” value ([1]; vitamin A 3880 μM in isopropanol, n=10) is reported as 1.1 ± 0.1 mM. The “Antioxidant Status in Trolox Equivalent (mM ± SD)” value ([1]; vitamin A 3880 μM in isopropanol, n=10, listed as vitamin A) was 1.11 mM, the “Antioxidant Status in Trolox Equivalent (mM ± SD)” value ([1]; vitamin A 5820 μM in isopropanol, n=10) was 1.4 ± 0.1 mM and the “Antioxidant Status in Trolox Equivalent (mM ± SD)” value ([1]; vitamin A 5820 μM in isopropanol, n=10, listed as vitamin A) was 1.41 mM.

With `Oc1cc(O)c2c(c1)O[C@H](c1ccc(O)c(O)c1)[C@H](O)C2` [(−) Epicatechin, (−) epicatechin] the “Antioxidant Status (mM) Trolox Equivalent Calculated 1/16 Dilution” value [1] was 1.00 mM, the “Antioxidant Status Trolox Equivalent (mM) of the observed individual ¼ Dilution” value [1] was 4.03 ± 0.28 mM and the “Antioxidant Status Trolox Equivalent (mM ± SD)” value ([1]; polyphenol 0.25 mM in ethanol) was 1.62 ± 0.13 mM. The “Antioxidant Status Trolox Equivalent (mM ± SD)” value ([1]; polyphenol 0.5 mM in ethanol) was 3.69 ± 0.23 mM.

In the case of `CCO` [Ethanol], the “antioxidant activity” value [1] is reported as “no antioxidant activity”, the “Antioxidant status … High value” [1] is reported as 0.1 mM and the “Antioxidant status … Low value” [1] is reported as 0.0 mM. The “Antioxidant status … Mean value” [1] was 0.08 mM.

For `C[S+](C)[O-]` [DMSO, Dimethyl sulphoxide], the “Antioxidant status … High value” [1] was 1.2 mM, the “Antioxidant status … Low value” [1] was 0.6 mM and the “Antioxidant status … Mean value” [1] was 0.86 mM.

With `Cc1c(C)c2c(c(C)c1O)CCC(C)(C(=O)O)O2` (racemic) [Trolox, (±)6-hydroxy-2,5,7,8-tetramethylchromane-2-carboxylic acid] the “Area Under Curve (mean ± SD)” value ([2]; STD 1.0 mM, AAPH 583 mM) was 40829 ± 4000, the “Area Under Curve (mean ± SD)” value ([2]; STD 2.0 mM, AAPH 583 mM) was 55416 ± 3207 and the “Area Under Curve (mean ± SD)” value ([2]; STD 2.0 mM, AAPH 640 mM) was 44522 ± 2348. For the same molecule, the “Area Under Curve (mean ± SD)” value ([2]; STD 4.0 mM, AAPH 640 mM) was 69220 ± 6603, the “Mean Area Under Curve” value ([2]; Trolox 2.0 mM, 100 μL Brij 35 per 15 mL working uroporphyrin solution, n=24) was 71394 and the “Area Under Curve (mean ± SD)” value ([1]; STD 1.0 mM, AAPH 640 mM) was 35554 ± 2267. For the same molecule, the “Area Under Curve (mean ± SD)” value ([1]; STD 4.0 mM, AAPH 583 mM) was 77238 ± 3701, the “Mean Area Under Curve” value ([1]; Trolox 0.5 mM, 20 μL Brij 35 per 15 mL working uroporphyrin solution, n=24) was 45482 and the “Mean Area Under Curve” value ([1]; Trolox 0.5 mM, 100 μL Brij 35 per 15 mL working uroporphyrin solution, n=24) was 52714. The “Mean Area Under Curve” value ([1]; Trolox 0.5 mM, intra-assay precision, n=16) was 47456, the “Mean Area Under Curve” value ([1]; Trolox 1.0 mM, 20 μL Brij 35 per 15 mL working uroporphyrin solution, n=24) was 57154 and the “Mean Area Under Curve” value ([1]; Trolox 1.0 mM, 100 μL Brij 35 per 15 mL working uroporphyrin solution, n=24) was 61482. The “Mean Area Under Curve” value ([1]; Trolox 1.0 mM, intra-assay precision, n=16) was 57535, the “Mean Area Under Curve” value ([1]; Trolox 2.0 mM, 20 μL Brij 35 per 15 mL working uroporphyrin solution, n=24) was 72596 and the “Mean Area Under Curve” value ([1]; Trolox 2.0 mM, intra-assay precision, n=16) was 76499.

In the case of `CC(C)=O` [Acetone], the “antioxidant activity” value [1] is reported as “no antioxidant activity”, the “Antioxidant status … High value” [1] is reported as 0.2 mM and the “Antioxidant status … Low value” [1] is reported as 0.0 mM. For the same molecule, the “Antioxidant status … Mean value” [1] was 0.08 mM.

Source: patent US20050244983A1, “Method for measuring antioxidant status” (The Western Australian Centre for Pathology and Medical …, priority 2002, published 2005)
